pIC50: −log10 of the molar value.

In one data set the test system is choline transporters. Kind of data set: In vitro determination of IC50: inhibition of [^3H]choline chloride accumulation in PC-3 cells. The settings on record: cell line PC-3 (human prostate carcinoma), [^3H]choline chloride 0.81 × 10^-6 M, 60 min at 37 °C. Type of data set: cell-based. The procedure:
IC50 value corresponds to a concentration of the given analog of choline which reduces the accumulation of choline chloride, the natural ligand of choline transporterss, to 50 % of the maximum value. For the assay, the tritium labeled choline chloride, i.e. [^3H]choline chloride, was used. The assay was performed in vitro on the cell line PC-3 derived from a human prostate carcinoma, which is known to overexpress choline transporters. […] As the negative control, a cell line of human ovarian carcinoma SKOV3 prepared to the confluence of 90 % in 24-well plates was used.
The cultivation medium was removed from the thus prepared cells in cultivation plates and the cells were rinsed with phosphate buffered saline (PBS). Subsequently, 0.3 mL of "incubation buffer" (25 mM Tris/HCl, 5.4 mM KCl, 1.8 mM CaCl2, 0.8 mM MgSO4, 5 mM glucose, 140 mM NaCl, pH adjusted to 7.4) was added to the cells. Then 0.1 mL of the solution of the tested substance (analog of choline) in the incubation buffer was added to the PC-3 cells in such concentrations, that after adding [^3H]choline chloride the resulting concentrations of the tested analog would be following: 0 M, 10^-8 M, 10^-7 M, 10^-6 M, 5 × 10^-6 M, 10^-5 M, 10^-4 M, 5 × 10^-4 M, 10^-3 M, 5×10^-3 M. Each concentration was tested in triplicate.
Subsequently, all cells prepared in this manner (PC-3 and SKOV3) were incubated with the analogs of choline for 15 minutes at the temperature of 37 °C.
Then 0.1 mL of the solution of the [^3H]choline chloride in the incubation buffer was added to all cell-containing wells, so that 0.1 mL of the solution had the activity of 15 kBq and that the final concentration of the [^3H]choline chloride in the medium with the cells was 0.81 × 10^-6 M. The cells were then incubated at 37 °C for a period of 60 min. After the incubation, all buffer solution was removed from the cells. The cells were rinsed with PBS, which was subsequently removed, and 0.2 mL of aqueous NaOH solution (0.1 M) was added to each well. The cells were incubated with sodium hydroxide for 30 min at 37 °C. The lysate was then homogenized with a pipette and 10 µL of the lysate were used for the determination of protein concentration by bicinchonic acid assay (BCA).
The remaining lysate (180 µL) was quantitatively transferred into scintillation vials containing a previously prepared scintillation solution (2 mL of the solution in each vial). Each well was then additionally rinsed with 0.2 mL of pure water and this solution was added to the corresponding scintillation vials. Scintillation vials were closed and their content was stirred on a shaker.
To another three scintillation vials containing scintillation solution (2 mL of the solution in each vial) the standard samples of [^3H]choline chloride were added (i.e. 10 µl of the [^3H]choline chloride solution together with 180 µl of aqueous NaOH solution (0.1 M) and 200 µl of water). The vials were closed and their content was stirred on the shaker.
Subsequently, radioactivity of each scintillation vial was measured using a liquid scintillation counter (Tri-Carb 2910TR Liquid Scintillation Counter, PerkinElmer). The recorded counts per second (cps) were then used to calculate the accumulation of [^3H]choline chloride in the individual cell samples. […] These values were used to construct a sigmoid curve of dependence between the rate of [^3H]choline chloride accumulation and the competing ligand (analog of choline) concentration(inhibition curve, Figure 2). The IC50 values were calculated from these inhibition curves.

A further data set in a line: in vitro. The settings on record: liver microsomes. (In general: Liver microsomes are vesicles of endoplasmic reticulum, rich in cytochrome P450 enzymes.)
Another data set is described as follows: Microsomal stability. The settings on record: hepatic microsomes.
Data set [1] can be described thus: Binding to plasmatic proteins. The note with it: plasma.

For `CCCCCCCCCCOc1ccc(CCC[N+](C)(C)CCO)cc1I` [Example 22, [3-(4-decyloxy-3-iodophenyl)propyl]-(2-hydroxyethyl)-dimethylammonium methanesulfonate], in the data set on choline transporters, the negative logarithm of the IC50 (pIC50) – broadly, −log10 of the IC50, conventionally taken in molar units – was 5.72.

For `C[N+]1(CCc2ccc(I)cc2)CCCC(O)C1.Cc1ccc(S(=O)(=O)[O-])cc1` (stereo not drawn) [Example 6, 3-hydroxy-1-[2-(4-iodophenyl)ethyl]-1-methylpiperidin-1-ium 4-methylbenzenesulfonate], the microsomal CLint (commonly a measure of how fast metabolising enzymes remove a compound, apart from limits set by blood flow) in “in vitro” stood at 1230 µL/min/mg. The pIC50 in the data set on choline transporters is 4.08. In “Microsomal stability”, the “Microsomal stability t1l2” value turned out to be 1.1 min. For the same compound, the fraction unbound (in general, free concentration divided by total concentration) in data set [1] was 0.735. The “Plasma stability (120 min)” value in the data set “Stability in the plasma” was 81.3%.

Consider `COc1ccc(CC[N+](C)(C)CCO)cc1I.Cc1ccc(S(=O)(=O)[O-])cc1` [Example 1, (2-hydroxyethyl)-[2-(3-iodo-4-methoxyphenyl)ethyl]-dimethylammonium 4-methylbenzenesulfonate], for which the microsomal CLint in “in vitro” worked out at 8.4 µL/min/mg. Moreover, in the data set with choline transporters, the negative logarithm of the IC50 (pIC50) is 4.33. In the data set “Microsomal stability”, the “Microsomal stability t1l2” value came to 165.0 min. In addition, the fraction unbound in data set [1] is 0.805. Besides, in “Stability in the plasma”, the “Plasma stability (120 min)” value is recorded as 28.4%.

Turning to “(2-hydroxyethyl)-{4-[(2-iodo-6-methylpyridin-3-yl)oxy]butyt}-dimethylammonium bromide [Example 38]”, in the data set with choline transporters, the pIC50 is 4.74.

`Cc1ccc(S(=O)(=O)[O-])cc1.OC1C[N+]2(CCc3ccc(I)cc3)CCC1CC2` (stereo not drawn) [Example 8, 3-hydroxy-1-[2-(4-iodophenyl)ethyl]quinuclidin-1-ium 4-methylbenzenesulfonate]: the microsomal CLint in the data set “in vitro” is 39.8 µL/min/mg. In the data set with choline transporters, the pIC50 is 3.92. Moreover, the “Microsomal stability t1l2” value in “Microsomal stability” worked out at 34.8 min. In data set [1], this compound gave a fraction unbound of 0.717. Further, the “Plasma stability (120 min)” value in “Stability in the plasma” stood at 89.9%.

`OCC[N+]1(CCOc2cccc(I)c2)CCCC1` [Example 28, 1-(2-hydroxyethyl)-1-[2-(3-iodophenoxy)ethyl]pyrrolidin-1-ium bromide] showed a pIC50 with choline transporters of 4.82.

In the data set on choline transporters, `C[N+](C)(CCO)CCOc1cccc(I)c1` [Example 27, (2-hydroxyethyl)-[2-(3-iodophenoxy)ethyl]-dimethylammonium bromide] gave a pIC50 of 4.66.

In the case of `OCC[N+]1(CCCCOc2ccccc2I)CCCC1` [Example 32, 1-(2-hydroxyethyl)-1-[4-(2-iodophenoxy)butyl]pyrrolidin-1-ium bromide], in the data set on choline transporters, the pIC50 is 5.29. Against the preceding compound, the pIC50 is 0.63 log units higher.

In turn, `C[N+](C)(CCO)CCc1ccc(I)cc1.Cc1ccc(S(=O)(=O)[O-])cc1` [Example 5, (2-hydroxyethyl)-[2-(4-iodophenyl)ethyl]-dimethylammonium 4-methylbenzenesulfonate] came in with a microsomal CLint in the data set “in vitro” of 88.6 µL/min/mg. In the data set on choline transporters, this compound gave a pIC50 of 5.13. In the data set “Microsomal stability”, the “Microsomal stability t1l2” value is 15.6 min. Moreover, in data set [1], the free fraction (fraction unbound) is 0.653. The “Plasma stability (120 min)” value in the data set “Stability in the plasma” is listed as 43.0%.

The compound `C[N+](C)(C)CCO` [Choline] showed a pIC50 with choline transporters of 5.43.

Take `OCC[N+]1(Cc2cccc(I)c2)CCCC1` [Example 10, 1-(2-hydroxyethyl)-1-(3-iodobenzyl)pyrrolidin-1-ium methanesulfonate]: the pIC50 in the data set with choline transporters was 4.89.

Regarding `CCCCCCOc1ccc(CCC[N+](C)(C)CCO)cc1I` [Example 21, [3-(4-hexyloxy-3-iodophenyl)propyl]-(2-hydroxyethyl)-dimethylammonium 4-methylbenzenesulfonate], in the data set on choline transporters, the pIC50 is 6.37.

On to `C[N+](C)(CCO)CCc1ccc(I)s1` [Example 33, (2-hydroxyethyl)-[2-(5-iodothiophen-2-yl)ethyl]-dimethylammonium 4-methylbenzenesulfonate], for which the pIC50 in the data set on choline transporters was 6.35. This pIC50 and that of the compound before are within 0.2 log units of each other.

Regarding `OCC[N+]1(CCCCCCOc2cccc(I)c2)CCCC1` [Example 30, 1-(2-hydroxyethyl)-1-[6-(3-iodophenoxy)hexyl]pyrrolidin-1-ium bromide], the pIC50 in the data set on choline transporters was 6.04.

For `CC[N+](CC)(CCO)Cc1ccc(I)cc1` [Example 12, diethyl-(2-hydroxyethyl)-(4-iodobenzyl)ammonium bromide], the pIC50 in the data set on choline transporters is 4.10. Against the preceding compound, the pIC50 is 1.94 log units lower.

In the case of `OCC[N+]1(Cc2ccc(I)cc2)CCOCC1` [Example 35, 4-(2-hydroxyethyl)-4-(4-iodobenzyl)morpholin-4-ium bromide], the pIC50 in the data set with choline transporters is 3.57.

Compound `OCC[N+]1(Cc2ccccc2I)CCOCC1` [Example 36, 4-(2-hydroxyethyl)-4-(2-iodobenzyl)morpholin-4-ium chloride] had a pIC50 with choline transporters of 4.37.

For `C[N+](C)(CCO)Cc1ccc(I)cc1` [Example 11, (2-hydroxyethyl)-(4-iodobenzyl)-dimethylammonium bromide], the pIC50 in the data set on choline transporters is 3.82.

In the data set on choline transporters, `C[N+](C)(CCO)CCCCCCOc1cccnc1I` [Example 37, (2-hydroxyethyl)-{6-[(2-iodopyridin-3-yl)oxy]hexyl}-dimethylammonium bromide] showed a pIC50 of 5.85.

Consider `OCC[N+]1(CCOc2ccc(I)cc2)CCCC1` [Example 26, 1-(2-hydroxyethyl)-1-[2-(4-iodophenoxy)ethyl]pyrrolidin-1-ium bromide], for which the pIC50 with choline transporters was 4.74.

Compound `OCC[N+]1(Cc2ccc(I)cc2)CCCC1` [Example 13, 1-(2-hydroxyethyl)-1-(4-iodobenzyl)pyrrolidin-1-ium bromide] gave a pIC50 in the data set with choline transporters of 4.54.

Turning to `C[N+](C)(CCO)CCCCOc1ccc(-c2ccccc2)cc1I` [Example 39, (2-hydroxyethyl)-{4-[(3-iodo-[1,1'-biphenyl]-4-yl)oxy]butyl}-dimethylammonium bromide], in the data set on choline transporters, the pIC50 was 5.89.

In the data set with choline transporters, `C[N+](C)(CCO)CCOc1ccc(I)cc1` [Example 25, (2-hydroxyethyl)-[2-(4-iodophenoxy)ethyl]-dimethylammonium bromide] had a pIC50 of 4.64.

For the compound `C[N+](C)(CCO)CCCCCCOc1cccc(I)c1` [Example 29, (2-hydroxyethyl)-[6-(3-iodophenoxy)hexyl]-dimethylammonium bromide], the pIC50 with choline transporters is 7.36.

In the case of `OCC[N+]1(CCc2ccc(I)s2)CCCC1` [Example 34, 1-(2-hydroxyethyl)-1-[2-(5-iodothiophen-2-yl)ethyl]pyrrolidin-1-ium 4-methylbenzenesulfonate], the pIC50 with choline transporters is 5.00.

`C[N+](C)(CCO)CCCCOc1ccccc1I` [Example 31, (2-hydroxyethyl)-[4-(2-iodophenoxy)butyl]-dimethylammonium bromide] showed a pIC50 in the data set on choline transporters of 4.96. This pIC50 and that of the compound before are within 0.2 log units of each other.

Consider `C[N+](C)(CCO)Cc1cccc(I)c1` [Example 9, (2-hydroxyethyl)-(3-iodobenzyl)-dimethylammonium methanesulfonate], for which the pIC50 in the data set on choline transporters was 4.00.

With `OCC[N+]1(CCOc2ccccc2I)CCCC1` [Example 24, 1-(2-hydroxyethyl)-1-[2-(2-iodophenoxy)ethyl]pyrrolidin-1-ium bromide], the negative logarithm of the IC50 (pIC50) in the data set with choline transporters was 5.33.

Consider `OCC[N+]1(Cc2ccc(I)cc2)CCCC1` [Example 20, 1-(2-hydroxyethyl)-1-(4-iodobenzyl)pyrrolidin-1-ium 4-methylbenzenesulfonate], for which the microsomal CLint in “in vitro” was 310 µL/min/mg. In the data set on choline transporters (4-methylbenzenesulfonate), this compound had a pIC50 of 5.20.

For `C[N+](C)(CF)CCO` [Fluoromethylcholine, reference compound], the pIC50 in the data set with choline transporters was 4.80.

Take `C[N+](C)(CCO)CCCCCCOc1ccc(I)c([N+](=O)[O-])c1` [Example 40, (2-hydroxyethyl)-[6-(4-iodo-3-nitrophenoxy)hexyl]-dimethylammonium bromide]: the negative-log IC50 (pIC50) with choline transporters was 6.85.
